# Measurements published in PMC10356901, “Mitochondria-derived peptide SHLP2 regulates energy homeostasis through the activation of hypothalamic neurons” (Nature Communications, 2023).
# Values joined by “and” are separate entries in the source; they are usually repeats but may differ in a detail not shown here. Identical values can stand only once. Where no end group is shown, it is not given here.
# Legend:
# [1] = Dot blot for SHLP2 in CSF after IP injection; assay type: in vivo, mouse
# Procedure: The immuno-dot blot assay was performed by using the human and mice serum or mouse CSF. 0.2 μm nitrocellulose membranes were activated with ultrapure water (Invitrogen, 10977015), and 2 μL of samples were spotted on a membrane and dried for 30 mins at RT. The membrane was blocked in 5% BSA prepared in 1X Tris Buffered Saline-0.1% Tween 20 (TBST) for 1 h before being overnight incubated with anti-SHLP2 at 4 °C. Membranes were washed 3 times with 1X TBST, then incubated with anti-rabbit IgG (Invitrogen, 31460, 1:3000). The membranes were washed and visualized using the ImageQuant™ LAS 4000 (GE Healthcare Life Science). Blot densitometry was measured using ImageJ software (NIH Image). To quantitate the immuno-dot blot assay results, we prepared controls (total protein level stained by amido black), and subsequently established a calibration figure for each run of the assay.
# CXCR7 [2] = molecular target: T1, CXCR7 (Homo sapiens, UniProt P25106); assay: PathHunter β-Arrestin recruitment to CXCR7, dose response; assay type: cell-based; details: 10-point curve, Hill / four-parameter logistic
# T1 construct: host or cells: CHO-K1
# T1 sequence (P25106 whole entry): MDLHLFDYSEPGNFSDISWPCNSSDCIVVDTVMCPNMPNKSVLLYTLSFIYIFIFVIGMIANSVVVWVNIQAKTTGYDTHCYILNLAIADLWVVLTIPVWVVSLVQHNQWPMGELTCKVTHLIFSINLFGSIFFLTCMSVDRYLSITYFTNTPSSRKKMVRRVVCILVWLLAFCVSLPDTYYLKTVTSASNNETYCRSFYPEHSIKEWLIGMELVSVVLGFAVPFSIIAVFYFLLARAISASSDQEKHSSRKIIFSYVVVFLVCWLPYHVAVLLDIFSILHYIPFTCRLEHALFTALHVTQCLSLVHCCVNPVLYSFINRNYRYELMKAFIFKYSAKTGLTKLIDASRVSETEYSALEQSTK
# T1 sequence (P32121 whole entry partner): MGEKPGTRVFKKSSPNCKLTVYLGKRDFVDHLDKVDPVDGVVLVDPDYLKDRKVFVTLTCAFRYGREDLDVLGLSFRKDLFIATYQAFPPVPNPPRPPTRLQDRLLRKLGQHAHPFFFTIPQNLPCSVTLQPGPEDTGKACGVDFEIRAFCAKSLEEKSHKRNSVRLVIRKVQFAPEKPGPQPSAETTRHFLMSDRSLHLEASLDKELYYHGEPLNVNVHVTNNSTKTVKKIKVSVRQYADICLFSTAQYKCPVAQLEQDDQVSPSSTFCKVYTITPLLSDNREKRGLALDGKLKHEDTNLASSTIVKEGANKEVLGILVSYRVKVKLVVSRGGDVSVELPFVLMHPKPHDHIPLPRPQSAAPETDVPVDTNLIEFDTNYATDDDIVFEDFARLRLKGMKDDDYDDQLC
# Procedure: The GPCR profiling was performed using PathHunter GPCRmax Arrestin recruitment assay with 168 known GPCRs provided by DiscoverX (Eurofins). This assay utilized Chinese Hamster Ovary CHO-K1 cells expressing GPCR tagged with ProLink (PK) and β-Arrestin2 tagged with a deletion mutant of β-galactosidase as an enzyme acceptor. Upon the binding of the ligand to the GPCR, the recruitment of tagged β-Arrestin2 to the GPCR causes the complementation of a functional β-galactosidase, hydrolyzing a chemiluminescence substrate. The assay was performed with known ligands in agonist and antagonist modes, with data presented as: %Activityagonist=100%×MeanRLUSHLP2−MeanRLU(vehiclecontrol)/MeanMAXRLUcontrolligand−MeanRLU(vehiclecontrol) and %Activityantagonist=100%×1−MeanRLUSHLP2−MeanRLU(vehiclecontrol)/MeanMAXRLUcontrolligand−MeanRLU(vehiclecontrol)
# The dose response (EC50) was built using a 10-point curve and fit to a Hill Equation.
# [3] = system: POMC neurons expressing hM4Di; assay: Patch clamp of hM4Di-expressing POMC neurons on CNO application; assay type: cell-based, mouse; details: for Firing rate / Resting membrane potential (RMP): hM4Di-expressing POMC neurons, CNO
# Procedure: Slices were moved to a submerged-type recording chamber with continuous perfusion of carbogenated recording aCSF heated to 31 °C at a flow rate of approximately 2 mL/min. Tested compounds were added through bath perfusion. To block synaptic inputs, the aCSF contained 100 nM tetrodotoxin (TTX citrate; Tocris, 1069), 100 μM picrotoxin (Sigma-Aldrich, P8390), 100 μM D(−)-2-Amino-5-phosphonopentanoic acid (D-AP-V; Tocris, 0106) and 20 μM CNQX (CNQX-disodium; Tocris, 1045). To block ERK1/2 activation or PI3K signaling pathway, 10 µM of PD98059 (Tocris, 1213) or 1 µM of wortmannin (Tocris, 1232) was added to the bath solution for at least 30 min before any measurement. To test the effect of CNO on POMC neurons expressing the DREDD hM4Di receptor, 5 μM of CNO were applied for 1 to 2 min.
# POMC or AgRP-expressing neurons in the ARC were identified with a brief exposure to epifluorescence on an upright microscope (Nikon FN1) using a 40X water-immersion objective and differential interference contrast optics. The pipette solution contains (in mM) 127 K-Methanesulfonate, 5 KCl, 10 HEPES, 0.3 EGTA, 4 Mg-ATP, 0.3 Na-GTP, and is of a pH adjusted to 7.3 with KOH and a 288 mOsm/kg osmolality. The patch pipettes have a resistance of 4-6 MΩ when filled with the pipette solution. […] The basal resting membrane potential and firing rate were recorded for around 3 min after breaking in, and bath perfusion of SHLP2 was applied for 3 to 5 min. Neurons were classified as responsive if there was a change in resting membrane potential of at least 2 mV during the period of drug application. The access resistance (Ra) was monitored throughout the experiment, and cells with a Ra of more than 35 MΩ were excluded from the analysis. Data were acquired at 10 kHz, filtered with a lowpass filter at 5 kHz and analyzed offline with Clampfit 10 (Molecular Devices). The calculated liquid junction potential was +9.55 mV and used to correct all data.
# [4] = cited from earlier work
# Excerpt: One of the first MDPs discovered is Humanin, a 24-amino-acid peptide encoded by the mitochondrial 16S ribosomal RNA (rRNA) gene. It was originally identified in 2001 during a screening for neuroprotective factors against Alzheimer’s disease[6],[7]. […] Another MDP called Mito chondrial Open Reading Frame of the 12S rRNA-c (MOTS-c) is encoded by the mitochondrial 12S rRNA gene[9]. MOTS-c is a mitochondria-originated metabolic hormone which ... || In addition to humanin and MOTS-c, a recent study has identified an additional six small humanin-like peptides (SHLP1 to 6) encoded by the 16S rRNA gene of the mtDNA genome. […] However, the mechanism by which SHLP2 affec ...
# CXCR7 [5] = assay: Nanoluc-complementation (NanoBiT) β-Arrestin2 recruitment to CXCR7; assay type: cell-based, human; details: HEK293T, n = 4 each group
# Procedure: The recruitment assay was performed based on Nano-luciferase[49]. The vectors (50 ng; gift of Prof. Jong-Ik Hwang, Korea University) encoding human CXCR7, CXCR4, and β-Arrestin2 tagged with SmBiT and LgBiT under Ubiquitin C promoter[49] were transfected into HEK293T cells in a 96-well clear bottom culture plate using Lipofectamine 2000 according to the manufacturer’s protocol. Cells were washed three times with an assay buffer containing (in mM) 140 NaCl, 2.5 KCl, 10 Glucose, 5 HEPES, 2 CaCl2, and 2 MgSO4, pH 7.4 after 24 h. Cells were then incubated with 5 µM Coelenterazine-h (Promega, S201) in the assay buffer for 30 min in the dark, and luminescence was measured at 35 °C in the Victor Nivo Multimode Plate reader (PerkinElmer). The background luminescence was measured for at least 10 min before the addition of ligands, and signals were monitored for at least 60 min after the application of SHLP2 or recombinant mouse CXCL12 (R&D systems, 460-SD-010/CF). The specificity of SHLP2 β-Arrestin2 recruitment through CXCR7 was also confirmed through the assay with CXCR4. Luminescent signals were collected through a 700 nm-IR filter and data were shown as light counts per each cycle of measurement.
# [6] = Angiotensin II-induced water consumption test (Supplementary Fig. 4a); assay type: in vivo, mouse; details: After (angiotensin II); individual animals
# Procedure: For intracerebroventricular (ICV) cannulation, mice were anesthetized by intraperitoneal injection (IP) of Zoletil (titelamine/zolazepam 30 mg/kg) and Rompun (xylazine 10 mg/kg), then placed onto a stereotaxic apparatus. After setting the ventricular coordinates, a permanent 26-gauge stainless steel cannula (Plastic one, Inc.) was implanted in the third ventricle (1.8 mm caudal to bregma, and 5.0 mm ventral to the sagittal sinus according to the Paxinos and Franklin’s atlas) and secured to the skull surface using a dental acrylic (Vertex). Mice were individually housed and allowed to recover for at least 1 week. The angiotensin II-induced water consumption test was performed to confirm the position of the ICV cannulation. […] Mice with no angiotensin II-induced thirst behavior were excluded from the experiments.
# adipocytes = details: in vitro; cited from earlier work
# Excerpt: In addition to humanin and MOTS-c, a recent study has identified an additional six small humanin-like peptides (SHLP1 to 6) encoded by the 16S rRNA gene of the mtDNA genome. […] However, the mechanism by which SHLP2 affec ...
# [7] = molecular target: CXCR7 tagged with ProLink (PathHunter CHO-K1 cell line) (UniProt P25106)
# CXCR7 tagged with ProLink (PathHunter CHO-K1 cell line), sequence (P25106 whole entry): as the sequence (P25106 whole entry) above
compound,measurement,setting,value
"MGVKFFTLSTRFFPSVQRAVPLWTNS [SHLP2, Small humanin-like peptide 2]","SHLP2 in CSF, relative dot blot densitometry","[1]; IP injection, individual animals (n = 3)",3.163 and 4.493 and 3.525
same,SHLP2 detection in CSF,[1]; systemic (IP) injection,highly detected in the CSF
same,EC50,CXCR7 [2],0.97 µM
"C[N+]1([O-])CCN(C2=Nc3cc(Cl)ccc3Nc3ccccc32)CC1 [CNO, Clozapine-N-oxide]",effect on POMC neurons expressing hM4Di,"[3]; 5 μM CNO, 1 to 2 min, n = 6 from 2 animals",induced hyperpolarization of POMC neurons expressing hM4Di
same,resting membrane potential and firing rate of POMC neurons expressing hM4Di,"[3]; 5 μM CNO, n = 6 from 2 animals",decreases in the resting membrane potentials (h) and firing rates (i)
same,Firing rate,[3]; replicate 1 of 6,0.3384
same,Resting membrane potential (RMP),[3]; replicate 1 of 6,-60.0566
same,Firing rate,[3]; replicate 2 of 6,0
same,Resting membrane potential (RMP),[3]; replicate 2 of 6,-63.8078
same,Firing rate,[3]; replicate 3 of 6,0.1759
same,Resting membrane potential (RMP),[3]; replicate 3 of 6,-77.9333
same,Firing rate,[3]; replicate 4 of 6,0.2189
same,Resting membrane potential (RMP),[3]; replicate 4 of 6,-57.1355
same,Firing rate,[3]; replicate 5 of 6,0.1654
same,Resting membrane potential (RMP),[3]; replicate 5 of 6,-59.3185
same,Firing rate,[3]; replicate 6 of 6,0.2879
same,Resting membrane potential (RMP),[3]; replicate 6 of 6,-55.5068
"Mito chondrial Open Reading Frame of the 12S rRNA-c (MRWQEMGYIFYPRKLR; UniProt A0A0C5B5G6 1-16, looked up) [MOTS-c, mitochondrial-derived peptide encoded by the mitochondrial 12S rRNA gene]",lifespan,[4],promote lifespan
Small humanin-like peptide 1 [SHLP1],CXCR7 activation (β-Arrestin2 recruitment) by SHLP1 to 6,CXCR7 [5],"but not by SHLP1, 3, 4, 5, or 6"
"humanin: 24-amino-acid peptide encoded by the mitochondrial 16S ribosomal RNA gene (MAPRGFSCLLLLTSEIDLPVKRRA; UniProt Q8IVG9 1-24, looked up)",lifespan,[4],promote lifespan
Small humanin-like peptide 4 [SHLP4],CXCR7 activation (β-Arrestin2 recruitment) by SHLP1 to 6,CXCR7 [5],"but not by SHLP1, 3, 4, 5, or 6"
"angiotensin II (DRVYIHPF; Angiotensin-2; UniProt P01019 25-32, looked up) [used in the water consumption test to confirm ICV cannula position]",Fig. S4a water intake,[6],0.37 g and 0.63 g and 0.3 g and 0.21 g
Small humanin-like peptide 6 [SHLP6],CXCR7 activation (β-Arrestin2 recruitment) by SHLP1 to 6,CXCR7 [5],"but not by SHLP1, 3, 4, 5, or 6"
Small humanin-like peptide 5 [SHLP5],CXCR7 activation (β-Arrestin2 recruitment) by SHLP1 to 6,CXCR7 [5],"but not by SHLP1, 3, 4, 5, or 6"
Small humanin-like peptide 3 [SHLP3],CXCR7 activation (β-Arrestin2 recruitment) by SHLP1 to 6,CXCR7 [5],"but not by SHLP1, 3, 4, 5, or 6"
same,cellular differentiation and insulin sensitivity in adipocytes,adipocytes,enhance cellular differentiation and insulin sensitivity in adipocytes in vitro
"Small humanin-like peptide 2 (SHLP2), biotinylated","PathHunter β-Arrestin recruitment to CXCR7 (screen of 168 GPCRs, agonist mode): relative agonistic activity of SHLP2 as percent of the known ligand SDF1α/CXCL12 (% of the known ligand SDF1α/CXCL12)",[7],70
same,"PathHunter β-Arrestin recruitment to CXCR7, dose response to SHLP2 (10-point curve): EC50",[7],0.97 µM
